Measured values as given in patent US11920135B2, “Methods of treating VEGF/VEGFR resistant prostate, renal, or colorectal cancers using combination therapies” (University of Massachusetts, priority 2016, dated 2024).
Blank lines part the entries; values can stand above or below the compound they belong to.

Assays:
[1] = test system: PC3 and C4-2 sensitive and resistant cells; test: Prostatosphere formation; type: cell-based; conditions: resistant cells (PC3-R); EHT1864 20 μM
Protocol: FIG. 2B. Resistant and sensitive populations were analyzed for prostatosphere formation in the presence of either a NRP inhibitory peptide (c-furSEMA) or control peptide (c-SEMA).
FIG. 3H. PC3-R cells were stimulated with VEGF in the presence or absence of a Rac1 inhibitor (EHT1864; 20 μM) and the effect on prostatosphere formation was measured.
FIG. 6I. Prostatosphere formation by VEGF^high cells in the presence or absence of EHT1864 was quantified.

[2] = test system: Lin-Sca+CD49fhigh cells (LSC cells); test: Freshly sorted LSC cells from PTENpc-/- mice: proliferation, prostatosphere formation, qPCR; type: cell-based, mouse; conditions: Rac1 inhibitor EHT1864 (FIG. 3I)
Protocol: FIG. 3I. Freshly sorted Lin^−Sca^+CD49f^high cells (LSC cells) from PTEN^pc−/− mice were used to measure the effect of EHT1864, mcr84 or sunitinib on cell proliferation and prostatosphere formation.
FIG. 3J. Freshly sorted LSC cells from PTEN^pc−/− mice were treated with EHT1864 (20 μM) and expression of genes associated with stem cells and VEGF signaling was quantified by qPCR.
(§1) Cell-based assays: The chemosensitivity of prostate cancer cells was determined using a standard 3-(4,5-dimethylthiazol-2-yl)-2,5-diphenyltetrazolium bromide (MTT) cytotoxicity assay. The assay was performed 72 hours after treatment. FACS was used to isolate cells based on their surface expression of CD44, CD24, and the α6 and β4 integrins. The detailed procedure for isolating LSC cells from PTEN^pc−/− mice using lineage markers (CD31, CD45, and Ter119), Sca-1, and CD49f is described, e.g., in Mulholland, D. J., Xin, L., Morim, A., Lawson, D., Witte, O., and Wu, H. 2009. Lin−Sca−1+CD49fhigh stem/progenitors are tumor-initiating cells in the Pten-null prostate cancer model. Cancer Res 69:8555-8562; Lawson, D. A., Xin, L., Lukacs, R. U., Cheng, D., and Witte, O. N. 2007. Isolation and functional characterization of murine prostate stem cells. Proc Natl Acad Sci USA 104:181-186.

[3] = test system: PTENpc-/- prostate tumors; test: Pten pc-/- transgenic mouse model of prostate cancer; type: in vivo; conditions: for number of LSC cells: from 6 weeks of age
Protocol: FIG. 4C. Six-week old Pten^pc−/− mice were injected (i.p.) with either mcr84 (10 mg/kg) or EHT1864 (10 mg/kg) twice weekly for three weeks. The GU tract was harvested and total weight was measured. The prostate glands were separated and combined weight of all the lobes was measured. The prostate glands were digested and LSC cells (Lin^−Sca^+CD49f^high) were isolated by FACS.
FIG. 4D. Six-week old Pten^pc−/− mice were injected (i.p.) with either mcr84 (10 mg/kg) or EHT1864 (10 mg/kg) twice weekly for three weeks. The GU tract was harvested and total weight was measured. The prostate glands were separated and combined weight of all the lobes was measured.
FIG. 4E. Hematoxylin and eosin (H&E) staining of prostate tumors from Pten^pc−/− mice described in FIG. 4C, and the percentage of prostate glands showing either PIN or well-differentiated adenocarcinoma (AdCa). Scale bar is 100 μm.
FIG. 4F. TUNEL staining of tumor sections of prostate tumors from Pten^pc−/− mice described in FIG. 4C to detect apoptosis. Scale bar is 100 μm.
FIG. 7C. Six-week old Pten^pc−/− mice were injected (i.p.) with either mcr84 (10 mg/kg) twice weekly for three weeks. The prostate glands were harvested and immunostained using a myc antibody.
To pursue this hypothesis further, PTEN^pc−/− transgenic mice were treated with the Rac1 inhibitor (EHT1864), mcr84 or both at the start of puberty (6 weeks). […] We also compared the impact of mono- and combined therapy on PTEN^pc−/− tumors by calculating the weights of the isolated GU tracts and prostate lobes. […] Moreover, a mass of cells in the lumen of the gland was evident in mice that received the combined treatment. […] These tumor groups were also stained with CD31. Six-week old Ptenpc−/− mice were injected (i.p.) with either mcr84 (10 mg/kg) or EHT1864 (10 mg/kg) twice weekly for three weeks. The prostate glands were harvested and angiogenesis was analyzed using CD31 staining.

NRP1 = NRP1 (Homo sapiens, UniProt O14786); test: Ability to block VEGF-A binding to NRP; conditions: FIG. 9H
Description: FIG. 9H. Ability of VEGF antibodies to block VEGF-A binding to NRP.

[4] = test system: human prostate tumor cells; test: Sensitivity to bevacizumab of subpopulations sorted from freshly harvested prostate tumors (cell survival); type: cell-based
Protocol: FIG. 1B. Four subpopulations isolated based on expression of CD44 and CD24 were analyzed for their sensitivity to bevacuzimab. The percentage of live cells in three different areas was determined and mean is plotted as cell survival.
FIG. 1C. Cells from two human freshly harvested prostate tumors were sorted using ITGA6 and ITGB4 antibodies. The four subpopulations isolated based on expression of ITGA6 and ITGB4 were analyzed for their ability to form prostatospheres and sensitivity to bevacuzimab. The percentage of live cells in three different areas was determined and mean is plotted as cell survival.
Isolation of human prostate tumor cells and laser capture microscopy (LCM): Human prostate tumor tissue was obtained from UMASS Cancer Center Tissue Bank in compliance with the Institutional Review Board of the University of Massachusetts Medical School. The discarded but freshly resected, prostate tumors were digested with collagenase at 37° C. and epithelial cells were isolated using an EpCaM antibody. Frozen sections were microdissected by laser capture microscopy (Arcturus PixCell 2) to obtain pure populations of tumor cells of defined Gleason grades. […] Quantitative real-time PCR was done using the Taqman assay kit (Applied Biosystems). […]

[5] = test system: PC3 and C4-2 sensitive and resistant cells; test: Colony formation and MTT viability of sensitive and resistant cell lines; type: cell-based
Protocol: FIG. 1F. PC3 and C4-2 resistant and sensitive cell lines were analyzed for colony formation in the presence or absence of 10 μM Pazopanib.
FIG. 2C. Resistant and sensitive populations were analyzed for sensitivity to bevacuzimab (1 mg/ml) in the presence of either a NRP inhibitory peptide (c-furSEMA) or control peptide (c-SEMA).
FIG. 8F. PC3 and C4-2 resistant and sensitive cell lines were cultured in the presence of pazopanib (10 μM) or DMSO for 72 hours and cell viability is analyzed using the MTT assay.
FIG. 9D. PC3 and C4-2 resistant cells (10^3 cells per 60 mm plate) were cultured in the presence of either c-SEMA or c-furSEMA (1 μM), control IgG or NRP2 inhibitory antibody (1 μg/ml), or their respective controls for 10 days and colonies were stained with crystal violet. Colonies with more than 50 cells were counted.
as §1
The resistant cell lines generated are referred to as PC3-R and C4-2R. As controls, we also exposed these cell lines to control IgG (hIgG) and DMSO and refer to these as sensitive cell lines (PC3-S and C4-2S) (FIGS. 1D-1E).

ERK = ERK activation by immunoblotting with phospho-specific antibody; type: cell-based
Protocol: FIG. 2D. PC3-S cells were serum-deprived overnight and stimulated with VEGF (50 ng/ml) for 30 minutes in the presence or absence of bevacuzimab (5 mg/ml). The activation of ERK was analyzed by immunoblotting using a phospho-specific antibody.
FIG. 2F. Sensitive and resistant C4-2 cell lines were serum-deprived overnight and stimulated with VEGF (50 ng/ml) for 30 minutes in the presence of bevacuzimab (5 mg/ml). The activation of ERK and AKT was analyzed by immunoblotting using phospho-specific antibodies.
FIG. 2G. Sensitive and resistant PC3 cell lines were serum-deprived overnight and stimulated with VEGF (50 ng/ml) for 30 minutes in the presence of bevacuzimab (5 mg/ml). The activation of ERK and AKT was analyzed by immunoblotting using phospho-specific antibodies.
FIG. 6F. VEGF^high and VEGF^low cells were serum-deprived overnight and stimulated with VEGF (50 ng/ml) for 30 minutes in the presence or absence of bevacuzimab (5 mg/ml). The activation of ERK was analyzed by immunoblotting using a phospho-specific antibody.

PC3-R xenograft tumors = test: PC3-R xenografts in NSG mice; type: in vivo, mouse
Protocol: FIGS. 4A-4F. Rac1 inhibition improves sensitivity to VEGF/VEGFR-targeted therapy. FIG. 4A. Tumor volume of mice that were treated with either control IgG or bevacuzimab. PC3-R cells were transfected with Rac1 shRNAs and these cells were implanted in NSG mice. Once tumors reached approximately 100 mm^3 in volume, mice were treated with either control IgG or bevacuzimab (10 mg/kg, intraperitoneally, twice weekly). Tumor volume was measured every third day.
FIG. 4B. Terminal deoxynucleotidyl transferase dUTP nick end labeling (TUNEL) for control and treated PC3-R xenograft tumors that were harvested. Apoptosis was analyzed using TUNEL staining. Scale bar is 10 μm.

[6] = test system: VEGFhigh and VEGFlow PC3 cells; test: Proliferation of VEGFhigh and VEGFlow cells; type: cell-based; conditions: bevacizumab 1 mg/ml, sunitinib 20 μM, 72 hours
Protocol: FIG. 6E. VEGF^high and VEGF^low cells were incubated with bevacuzimab (1 mg/ml) or sunitinib (20 μM) for 72 hours and their proliferation was assayed.

[7] = test system: androgen-independent prostate cancer; conditions: bevacizumab monotherapy; cited from earlier work
[8] = 10 mg/kg i.p. twice weekly for three weeks
[9] = Rac1-depleted (shRNA) PC3-R xenografts plus bevacizumab

Compound: O=c1cc(CN2CCOCC2)occ1OCCCCCSc1ccnc2cc(C(F)(F)F)ccc12 [EHT1864]
number of prostatospheres [1]: reduced the number of prostatospheres
sensitivity of LSC cells to mcr84 and sunitinib [2]: increased the sensitivity of LSC cells
angiogenesis (CD31 staining) [3, 8]: No significant difference in staining
number of LSC cells [3, 8]: reduced the number of LSC cells significantly
number of LSC cells ([3]; 10 mg/kg i.p. twice weekly for three weeks, listed as RACi): significantly reduced
pathological examination of prostate tumors (PIN or adenocarcinoma) ([3]; H&E staining): progressed to well-differentiated adenocarcinomas

blocking of the binding of VEGF-A to NRP1 (NRP1): Neither mcr84 nor bevacizumab blocked
Compound: bevacizumab
resistance to bevacizumab treatment (cell survival) ([4]; CD44+CD24- (P1) subpopulation versus other subpopulations): the only subpopulation that exhibited resistance
resistance to bevacizumab treatment (cell survival) ([4]; high CD49f population compared to low CD49f population): exhibited resistance
sensitivity of resistant cells after down-regulation of P-Rex1 ([5]; PC3-R cells with P-Rex1 shRNA, bevacizumab 1 mg/ml, sunitinib 20 μM): increased their sensitivity
sensitivity to bevacizumab after down-regulation of NRP2 or NRP1 ([5]; PC3-R cells, shRNA): increased sensitivity
ability of the resistant cell lines to form colonies or survive ([5]; PC3-R, C4-2R, bevacizumab 1 mg/ml, sunitinib 20 μM, 10 days colonies, 72 hours MTT): Neither bevacizumab nor sunitinib inhibited
resistance to inhibition of viability and prostatosphere formation after expression of constitutively active MEK ([5]; sensitive cells): increased their resistance
resistance to bevacizumab after ectopic expression of NRP2 ([5]; sensitive cells, in the presence of VEGF): induces resistance
basal ERK activation (ERK; VEGFhigh cells): resistant
VEGF-induced ERK activation (ERK; VEGFlow cells): inhibited
ERK activation (ERK; resistant cells, bevacizumab 5 mg/ml): unable to inhibit ERK activation
apoptosis in residual tumors (TUNEL) (PC3-R xenograft tumors; [9]): contained mostly apoptotic cells
tumor volume (PC3-R xenograft tumors; [9]): significantly better decrease in tumor volume
tumor growth (PC3-R xenograft tumors; control PC3-R xenografts, bevacizumab alone, 10 mg/kg i.p. twice weekly): no significant effect on tumor growth
resistance of VEGFhigh cells compared to VEGFlow cells (proliferation) [6]: more resistant
patients exhibiting a decline in PSA [7]: 27%
response based on RECIST criteria [7]: no response noted
